From the Deep4Chem optical property database

Test: solvent given as SMILES

O=C1c2ccccc2-c2ccc(N3CCN(c4ccccc4)CC3)c3cccc1c23
absorption maximum (in C1CCCCC1): 423 nm | absorption maximum (in C1CCOC1): 438 nm | absorption maximum (in C1COCCO1): 436.2 nm | absorption maximum (in CC1COC(=O)O1): 445.6 nm | absorption maximum (in CC#N): 444 nm | absorption maximum (in CC(C)=O): 441.2 nm | absorption maximum (in CCCCCCCCO): 445 nm | absorption maximum (in CCCCCO): 446 nm | absorption maximum (in CCCCO): 444 nm | absorption maximum (in CCCO): 445 nm | absorption maximum (in CCO): 446.8 nm | absorption maximum (in CCOC(C)=O): 436 nm | absorption maximum (in CN(C)C=O): 447.2 nm | absorption maximum (in CO): 445 nm | absorption maximum (in CS(C)=O): 452 nm | absorption maximum (in Cc1ccccc1): 435.8 nm | absorption maximum (in ClC(Cl)Cl): 443 nm

O=c1oc2cc3ccccc3cc2nc1-c1ccccc1
absorption maximum (in CC#N): 348 nm | absorption maximum (in CCCCCC): 350 nm | absorption maximum (in CO): 346 nm | absorption maximum (in c1ccccc1): 356 nm

CCOC(=O)/C=C/C1=C(c2ccc(C)cc2)C2=Nc3c(-c4ccc(C)cc4)c(-c4ccc(OC)cc4)c(-c4ccc(C)cc4)n3[B-](F)(F)[N+]2=C1c1ccc(C)cc1
absorption maximum (in ClC(Cl)Cl): 673 nm

CC(C)[Si](C#Cc1c2ccccc2c(C#C[Si](C(C)C)(C(C)C)C(C)C)c2nc3c4ccccc4c(=O)c4ccccc4c3nc12)(C(C)C)C(C)C
absorption maximum (in ClCCl): 509 nm

C(=C\c1ccncn1)/c1ccc(N(c2ccccc2)c2ccc(/C=C/c3ccncn3)cc2)cc1
absorption maximum (in ClCCl): 422 nm

CCN(CC)c1ccc2c(c1)oc(=O)c1c(=O)oc3cc(C#Cc4ccc(N(C)C)cc4)ccc3c12
absorption maximum (in CS(C)=O): 468 nm | absorption maximum (in ClCCl): 459 nm

C(#Cc1ccccc1)C1=Cc2ccc3ccccc3c2NB1c1ccccc1
absorption maximum (in C1CCCCC1): 387 nm

CC(C)(C)c1cc(C(C)(C)C)c(-c2nnc(-c3ccc(-n4c5ccccc5c5ccccc54)cc3)o2)c(C(C)(C)C)c1
absorption maximum (in Cc1ccccc1): 340 nm

c1ccc(N(c2ccccc2)c2ccc(-c3ccc(-c4nc(-c5ccccn5)n(-c5ccccc5)n4)cc3)cc2)cc1
absorption maximum (in ClCCl): 349 nm

N#CC1=CC(C#Cc2ccccc2)=CC(C#N)=P1(c1ccccc1)c1ccccc1
absorption maximum (in ClC(Cl)Cl): 489 nm

C(=C(c1ccccc1)c1ccccc1)c1ccc(-c2cc(-c3ccc(C=C(c4ccccc4)c4ccccc4)cc3)c(-c3ccc(C=C(c4ccccc4)c4ccccc4)cc3)cc2-c2ccc(C=C(c3ccccc3)c3ccccc3)cc2)cc1
absorption maximum (in C1CCOC1): 330 nm

CC(C)c1cc(C(C)C)c(B2c3ccccc3Oc3cc(-n4c5ccccc5c5c6c(c7ccccc7n6-c6ccccc6)c6c(c7ccccc7n6-c6ccccc6)c54)ccc32)c(C(C)C)c1
absorption maximum (in Cc1ccccc1): 458 nm

O=[N+]([O-])c1ccc(O)c(-c2nc3c(c4c2-c2ccccc2CC4)-c2ccccc2CC3)c1
absorption maximum (in ClCCl): 342 nm

Cc1ccc(C2=CC(c3ccc(C)cc3)=[N+]3C2=Nc2c(-c4ccc(C)cc4)cc(-c4ccc(C)cc4)n2[B-]3(F)F)cc1
absorption maximum (in ClC(Cl)Cl): 652 nm

COc1cccc2cc(-c3cc4cccc(OC)c4oc3=O)oc12
absorption maximum (in CC#N): 352 nm | absorption maximum (in CCOC(C)=O): 351 nm | absorption maximum (in CS(C)=O): 359 nm | absorption maximum (in Cc1ccccc1): 358 nm | absorption maximum (in O): 363 nm

Cc1ccc(-c2sc(/C(C#N)=C/c3ccc(C#N)cc3)nc2-c2ccc(Cl)cc2)cc1
absorption maximum (in CC#N): 383 nm

CCCCN1C(=O)c2cccc3c(N(C)C)ccc(c23)C1=O
absorption maximum (in CC#N): 416 nm | absorption maximum (in CS(C)=O): 428 nm | absorption maximum (in Cc1ccccc1): 403 nm

CCCCCCCCCCCCOc1cc2c3c(ccc4c5c(OCCCCCCCCCCCC)cc6c7c(ccc(c1c34)c75)C(=O)N(C1CCCCC1)C6=O)C(=O)N(C1CCCCC1)C2=O
absorption maximum (in ClC(Cl)Cl): 570 nm

c1ccc(-c2nc3cc4c(cc3n2-c2ccccc2)nc(-c2ccccc2)n4-c2ccccc2)cc1
absorption maximum (in CC#N): 330 nm

c1ccc2c(c1)CCc1ccccc1N2c1c2ccccc2cc2ccccc12
absorption maximum (in Cc1ccccc1): 426 nm

Cc1cc(C)c(B(c2cc(C#Cc3ccccc3)sc2-c2sc(C#Cc3ccccc3)cc2P(=O)(c2ccccc2)c2ccccc2)c2c(C)cc(C)cc2C)c(C)c1
absorption maximum (in CO): 400 nm

Clc1cnc2nn3ccccc3c2c1
absorption maximum (in C1CCOC1): 373 nm

CC(C)(C)c1ccc2c(c1)c1cc(C(C)(C)C)ccc1n2-c1cc(C(=O)c2cccnc2)cc(-n2c3ccc(C(C)(C)C)cc3c3cc(C(C)(C)C)ccc32)c1
absorption maximum (in Cc1ccccc1): 381 nm

Cn1nc(-c2ccccc2)c2n[nH]nc2/c1=N\c1ccccn1
absorption maximum (in CC#N): 402 nm | absorption maximum (in CCO): 382 nm | absorption maximum (in Cc1ccccc1): 410 nm

CC/[NH+]=c1\cc2oc3cc(NCCC(=O)NC(C)C(=O)OC)c4ccccc4c3nc-2cc1C (stereo unspecified)
absorption maximum (in CCO): 590 nm

Cc1ccc(-c2ccc(/C=C/c3ccccc3)cn2)nc1
absorption maximum (in CC#N): 335 nm

COc1ccc(N(c2ccc(OC)cc2)c2cc3ccc4cc(B(c5c(C)cc(C)cc5C)c5c(C)cc(C)cc5C)cc5ccc(c2)c3c45)cc1
absorption maximum (in C1CCOC1): 399 nm | absorption maximum (in CC(C)=O): 395 nm | absorption maximum (in CCCCCC): 398 nm | absorption maximum (in Cc1ccccc1): 402 nm | absorption maximum (in ClC(Cl)Cl): 399 nm | absorption maximum (in ClCCl): 397 nm

CNc1cc2nc3cc(Cl)c(Cl)cc3nc2cc1NC
absorption maximum (in CCO): 442 nm

CN(C)c1ccc2cc(C(/C=C/c3cn(C)c4ccccc34)=C(C#N)C#N)c(=O)oc2c1
absorption maximum (in C1CCOC1): 455 nm | absorption maximum (in C1COCCO1): 452 nm | absorption maximum (in CN(C)C=O): 471 nm | absorption maximum (in CS(C)=O): 477 nm | absorption maximum (in ClCCl): 461 nm

Cc1ccc(-c2ccc3ccc4cc(C(C)(C)C)cc5ccc2c3c45)cc1
absorption maximum (in C1CCOC1): 342 nm | absorption maximum (in ClCCl): 342 nm

Cc1ccc(C)c(C2=C3C=CC(=[N+](C)C)C=C3[Si](C)(C)c3cc(N(C)C)ccc32)c1
absorption maximum (in O): 646 nm

COc1ccc(/C=C/C2=[O+][B-](F)(F)OC(/C=C/c3ccc(OC)cc3)=C2c2ccccc2)cc1
absorption maximum (in CC#N): 500 nm | absorption maximum (in CC(C)=O): 500 nm | absorption maximum (in CCOC(C)=O): 496 nm | absorption maximum (in CCOCC): 491 nm | absorption maximum (in ClC(Cl)(Cl)Cl): 493 nm | absorption maximum (in ClCCl): 505 nm

F[B-]1(F)OC(c2ccc(Br)cc2)=Cc2c3ccccc3c3ccccc3[n+]21
absorption maximum (in ClC(Cl)Cl): 435 nm

Cc1cc(C)c(C2=C3C=C(/C=C/C(=O)OC(C)(C)C)C=[N+]3[B-](F)(F)n3cc(/C=C/C(=O)OC(C)(C)C)cc32)c(C)c1
absorption maximum (in ClCCl): 580 nm

CCCCCCCCOc1ccc(-c2c3c4n(c(-c5ccc(OCCCCCCCC)cc5)c3c3n2[B-](F)(F)[n+]2c(ccc5cc(C(C)(C)C)ccc52)C=3C#N)[B-](F)(F)[n+]2c(ccc3cc(C(C)(C)C)ccc32)C=4C#N)cc1
absorption maximum (in ClC(Cl)Cl): 754 nm

COC(=O)c1cc(=O)n(Cc2ccccc2)c2cc(-c3ccc(OC)cc3)sc12
absorption maximum (in CC#N): 400 nm | absorption maximum (in ClCCl): 404 nm

O=C1/C(=C2\Sc3ccc(S(=O)(=O)Cl)cc3C2=O)Sc2ccc(S(=O)(=O)Cl)cc21
absorption maximum (in C1COCCO1): 526 nm | absorption maximum (in CS(C)=O): 553 nm

COc1ccc(-c2ncc3ccccn23)cc1
absorption maximum (in ClC(Cl)Cl): 306 nm

Cn1nc(-c2ccccc2)cc1-c1ccccc1
absorption maximum (in ClCCl): 254 nm

CC/[NH+]=c1\cc2oc3cc(NCCNC(=O)C(NC(=O)OC(C)(C)C)C(C)C)c4ccccc4c3nc-2cc1C (stereo unspecified)
absorption maximum (in CCO): 590 nm | absorption maximum (in O): 590 nm
